Read-outs that look alike come from different tables or passages of the source.
Assays:
PI3Kγ = PI3Kγ (Homo sapiens (Human), UniProt P48736); assay: High Throughput PI3K Lipid Kinase Assay (scintillation proximity assay); type: biochemical; settings: Human recombinant GST-PI3Kγ, SPA
Text: a) High Throughput PI3K Lipid Kinase Assay (Binding Assay): The efficacy of compounds of the invention in inhibiting the PI3K induced-lipid phosphorylation may be tested in the following binding assay. The assay combines the scintillation proximity assay technology (SPA, Amersham) with the capacity of neomycin (a polycationic antibiotic) to bind phospholipids with high affinity and specificity. The Scintillation Proximity Assay is based on the properties of weakly emitting isotopes (such as ^3H, ^125I, ^33P). Coating SPA beads with neomycin allows the detection of phosphorylated lipid substrates after incubation with recombinant PI3K and radioactive ATP in the same well, by capturing the radioactive phospholipids to the SPA beads through their specific binding to neomycin. […] After incubation at room temperature for 180 minutes, with gentle agitation, the reaction is stopped by addition of 60 μl of a solution containing 100 μg of neomycin-coated PVT SPA beads in PBS containing ATP 10 mM and EDTA 5 mM. The assay is further incubated at room temperature for 60 minutes with gentle agitation to allow binding of phospholipids to neomycin-SPA beads. After precipitation of the neomycin-coated PVT SPA beads for 5 minutes at 1500×g, radioactive PtdIns(3)P is quantified by scintillation counting in a Wallac MicroBetaTM plate counter. The values indicated in Table I below refer to the IC50 (nM) with respect to PI3Kγ, i.e. the amount necessary to achieve 50% inhibition of said target. Said values show a considerable inhibitory potency of thiazole compounds with regard to PI3Kγ.

[1] = test system: Akt/PKB phosphorylation in Raw 264-7 macrophages; assay: Cell based ELISA to monitor PI3K inhibition (Akt/PKB phosphorylation after Complement 5a stimulation); settings: Mus musculus
Description: b) Cell Based ELISA to Monitor PI3K Inhibition:
The efficacy of compounds of the invention in inhibiting the PI3K induced AKt/PKB phosphorylation may be tested in the following cell based assay.
Measurement of Akt/PKB phosphorylation in macrophages after stimulation with Complement 5a: Raw 264: Raw 264-7 macrophages (cultured in DMEM-F12 medium containing 10% Fetal Calf serum and antibiotics) are plated at 20'000 cells/well in a 96 MTP 24 h before cell stimulation. Previous to the stimulation with 50 nM of Complement 5a during 5 minutes, Cells are serum starved for 2 h, and pretreated with inhibitors for 20 minutes. After stimulation cells are fixed in 4% formaldehyde for 20 minutes and washed 3 times in PBS containing 1% Triton X-100 (PBS/Triton). Endogenous peroxidase is blocked by a 20 minutes incubation in 0.6% H2O2 and 0.1% Sodium Azide in PBS/Triton and washed 3 times in PBS/Triton. Cells are then blocked by 60 minutes incubation with 10% fetal calf serum in PBS/Triton. Next, phosphorylated AKt/PKB is detected by an overnight incubation at 4° C. with first antibody (anti phospho Serine 473 Akt IHC, Cell Signaling) diluted 800-fold in PBS/Triton, containing 5% bovine serum albumin (BSA). After 3 washes in PBS/Triton, cells are incubated for 60 minutes with a peroxidase conjugated goat-anti-rabbit antibody (1/400 dilution in PBS/Triton, containing 5% BSA), washed 3 times in PBS/Triton, and 2 times in PBS and further incubated in 100 μl of substrate reagent solution (R&D) for 20 minutes. The reaction is stopped by addition of 50 μl of 1 M SO4H2 and absorbance is read at 450 nm.
The values indicated in Table II below reflect the percentage of inhibition of AKT phoshorylation as compared to basal level. Said values show a clear effect of the thiazole compounds on the activation of AKT phosphorylation in macrophages.

Class I PI3-kinases = settings: Fruman et al., 1998; read-out: IC50 against each of the various Class I PI3-kinases; cited from earlier work
[2] = RAW264.7, Raw 264-7 macrophages, 50 nM Complement 5a, read-out: Cell Assay (P-Akt, Elisa) IC50

Chain of PI3Kγ (P48736 whole entry): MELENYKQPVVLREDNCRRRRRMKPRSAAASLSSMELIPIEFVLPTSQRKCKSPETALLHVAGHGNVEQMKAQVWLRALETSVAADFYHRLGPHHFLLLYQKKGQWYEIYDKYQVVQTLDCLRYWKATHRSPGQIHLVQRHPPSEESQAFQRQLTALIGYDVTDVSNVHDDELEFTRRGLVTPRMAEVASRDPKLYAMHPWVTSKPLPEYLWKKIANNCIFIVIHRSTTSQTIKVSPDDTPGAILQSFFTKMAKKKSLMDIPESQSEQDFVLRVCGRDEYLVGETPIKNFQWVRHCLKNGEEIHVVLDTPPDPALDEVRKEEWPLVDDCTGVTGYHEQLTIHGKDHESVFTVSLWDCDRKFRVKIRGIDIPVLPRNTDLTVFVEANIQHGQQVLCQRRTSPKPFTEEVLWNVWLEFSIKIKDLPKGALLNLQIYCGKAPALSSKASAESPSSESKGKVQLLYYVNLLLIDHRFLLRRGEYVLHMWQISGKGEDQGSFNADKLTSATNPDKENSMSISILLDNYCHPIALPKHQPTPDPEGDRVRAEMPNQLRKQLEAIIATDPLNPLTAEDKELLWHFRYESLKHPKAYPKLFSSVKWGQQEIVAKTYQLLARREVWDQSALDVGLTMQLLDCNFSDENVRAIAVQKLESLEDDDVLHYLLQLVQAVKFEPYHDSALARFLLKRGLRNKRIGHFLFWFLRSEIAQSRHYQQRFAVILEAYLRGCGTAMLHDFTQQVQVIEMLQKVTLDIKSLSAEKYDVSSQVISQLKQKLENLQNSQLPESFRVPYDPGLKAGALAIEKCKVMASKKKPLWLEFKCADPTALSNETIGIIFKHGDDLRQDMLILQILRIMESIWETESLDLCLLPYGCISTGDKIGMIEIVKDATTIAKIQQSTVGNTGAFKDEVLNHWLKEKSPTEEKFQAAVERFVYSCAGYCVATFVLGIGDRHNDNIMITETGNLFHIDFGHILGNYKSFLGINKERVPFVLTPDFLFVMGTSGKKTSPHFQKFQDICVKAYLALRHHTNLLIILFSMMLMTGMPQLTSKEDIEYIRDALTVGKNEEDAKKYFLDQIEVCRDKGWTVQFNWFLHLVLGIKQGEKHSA

IC50 (PI3Kγ) [nM]	SMILES	also measured
38	CC(=O)Nc1nc(C)c(-c2csc(Nc3cccnc3F)n2)s1 [Example 43, N-{2-[(2-fluoropyridin-3-yl)amino]-4′-methyl-4,5′-bi-1,3-thiazol-2′-yl}acetamide]	–
630	CC(=O)Nc1nc(C)c(-c2csc(N3CCCCC3)n2)s1 [Example 5, N-(4-methyl-2-piperidin-1-yl-4,5-bi-1,3-thiazol-2-yl)acetamide]	–
94	CC(=O)Nc1nc(C)c(-c2csc(Nc3cccnc3)n2)s1 [Example 7, N-[4-methyl-2-(Pyridin-3-ylamino)-4,5-bi-1,3-thiazol-2-yl]acetamid]	IC50 [1, 2]: 1.64 µM
871	CC(=O)Nc1nc(C)c(-c2csc(NCCN3CCOCC3)n2)s1 [Example 31, N-{4-methyl-2-[(2-morpholin-4-ylethyl)amino]-4,5-bi-1,3-thiazol-2-yl}acetamide]	–
355	COCCNc1nc(-c2sc(NC(C)=O)nc2C)cs1 [Example 33, N-{2-[(2-methoxyethyl)amino]-4-methyl-4,5-bi-1,3-thiazol-2-yl}acetamide]	–
314	CC(=O)Nc1nc(C)c(-c2csc(NC(C)(C)C)n2)s1 [Example 22, N-[2-(tert-butylamino)-4-methyl-4,5-bi-1,3-thiazol-2-yl]acetamide]	–

The remaining lines, values behind:

SMILES	IC50 (PI3Kγ) [nM]	also measured
CC(=O)Nc1nc(C)c(-c2csc(Nc3cccc(CCC(=O)O)c3)n2)s1 [Example 136, 3-(3-{[2′-(acetylamino)-4′-methyl-4,5′-bi-1,3-thiazol-2-yl]amino}phenyl) propanoic acid]	64	–
CC(=O)Nc1nc(C)c(-c2csc(N)n2)s1 [Example 14, N-(2-amino-4-methyl-4,5-bi-1,3-thiazol-2-yl)acetamide]	575	–
CC(=O)NCCNc1nc(-c2sc(NC(C)=O)nc2C)cs1 [Example 77, N-(2-{[2-(acetylamino)ethyl]amino}-4′-methyl-4,5′-bi-1,3-thiazol-2′-yl)acetamide]	189	–
CCOC(CCNc1nc(-c2sc(NC(C)=O)nc2C)cs1)OCC [Example 45, N-{2-[(3,3-diethoxypropyl)amino]-4′-methyl-4,5′-bi-1,3-thiazol-2′-yl}acetamide]	612	–
CC(=O)Nc1nc(C)c(-c2csc(NCC(O)c3ccccc3)n2)s1 (centres unmarked) [Example 37, N-{2-[(2-hydroxy-2-phenylethyl)amino]-4-methyl-4,5-bi-1,3-thiazol-2-yl}acetamide]	70	–
CC(=O)Nc1nc(C)c(-c2csc(N3CCOCC3)n2)s1 [Example 16, N-(4-methyl-2-morpholin-4-yl-4,5-bi-1,3-thiazol-2-yl)acetamide]	844	–
CC(=O)Nc1nc(C)c(-c2csc(Nc3cccc(-c4nnc(O)o4)c3)n2)s1 [Example 53, N-(2-{[3-(5-hydroxy-1,3,4-oxadiazol-2-yl)phenyl]amino}-4′-methyl-4,5′-bi-1,3-thiazol-2′-yl)acetamide]	–	IC50 ([1]; RAW264.7, read-out: Cell Assay (P-Akt, Elisa) IC50 [μM]): 1.51 µM
CC(=O)Nc1nc(C)c(-c2csc(NCCc3nnc(O)o3)n2)s1 [Example 56, 5-(2-{[2′-(acetylamino)-4′-methyl-4,5′-bi-1,3-thiazol-2-yl]amino}ethyl)-1,3,4-oxadiazol-2-olate]	377	–
C=CCNc1nc(-c2sc(NC(C)=O)nc2C)cs1 [Example 6, N-[2-(allylamino)-4-methyl-4,5-bi-1,3-thiazol-2-yl]acetamide]	202	–
CC(=O)Nc1nc(C)c(-c2csc(NCCC(N)=O)n2)s1 [Example 84]	–	IC50 [1, 2]: 1.84 µM
CC(=O)Nc1nc(C)c(-c2csc(Nc3ccc(Cl)nc3)n2)s1 [Example 24, N-{2-[(6-chloropyridin-3-yl)amino]-4-methyl-4,5-bi-1,3-thiazol-2-yl}acetamide]	–	IC50 [1, 2]: 0.66 µM
COC[C@H]1OC(=O)c2coc3c2[C@@]1(C)C1=C(C3=O)[C@@H]2CCC(=O)[C@@]2(C)C[C@H]1OC(C)=O [wortmannin]	–	IC50 (Class I PI3-kinases): 1 to 10 nM
CC(=O)Nc1nc(C)c(-c2csc(Nc3cccc(C(=O)O)c3)n2)s1 [Example 1]	–	IC50 [1, 2]: 3.18 µM

Source: patent publication US8802861B2, “Thiazole derivatives and use thereof” (Merck Serono SA, priority 2004, dated 2014)
